Measurements from PubChem BioAssay AID2060907 (Molecular Pharmacology Branch, DTP, NCI, 2025).
pIC50: −log10 of the molar value. Where “and” joins values, the source holds several entries; their conditions need not be identical. Identical values can stand only once.

Tested on: 388556-164-R-J1-PDC complex spheroid viability
Assay: Anticancer human tumor 388556-164-R-J1-PDC patient-derived colon adenocarcinoma cell line growth inhibition [RAS]
Details: for viability, T/C: stronger effect = lower value; active means viability on the fitted dose curve at most 10% of control; inactive means the rest
Excerpt: RAS pathway inhibitors in Combinations in Complex Spheroids
A high-throughput screen of multi-cell type tumor spheroids was designed to identify active combinations of RAS pathway inhibitors and targeted small molecules. Complex spheroids include a stromal component modeled by human endothelial cells (HUVEC) and fibroblasts modeled by human mesenchymal stem cells (MSCs). The concentration ranges selected for each drug and investigational agent were based upon clinically achievable concentrations if the clinical Cmax of the agent was known.
Compounds. The drugs and investigational agents: abemaciclib (NSC768073), cobimetinib (NSC768068), divarasib (GDC6063, NSC841802), docetaxel (NSC628503), GDC-1971 (RLY-1971, NSC841576), gemcitabine (NSC613327), inavolisib (NSC800729), ipatasertib (NSC767898), KB-0742 (NSC834161), MRTX-1133 (NSC836407), osimertinib (NSC779217), RMC-4630 (NSC839698), RMC-6236 (NSC851965), RMC-6291 (NSC852671), Ro-3306 (NSC812927), sapanisertib (NSC764658), SN-38 (NSC673596), staurosporine (NSC755774), SY5609 (NSC837396), and tovorafenib (DAY101, NSC766906), were obtained from the National Cancer Institute (NCI) Developmental Therapeutics Program Chemical Repository. The FDA-approved anticancer drug set is available from the NCI Developmental Therapeutics Program. […] The stock solutions were prepared in dimethyl sulfoxide (DMSO, Sigma-Aldrich, St. Louis, MO, cat. D2650) at 800-fold the tested concentration and stored at -70 degrees C prior to their use. All drugs and investigational agents were tested over a range starting from a high concentration at or near the clinical Cmax and decreasing in half-log increments. If the clinical Cmax for an agent had not been determined, the highest concentration tested was 10 microM.
Cell Culture. All cells were maintained in an incubator at 37 degrees C and 5% CO2 with 95% humidity. The PDC lines were cultured according to standard operating procedures established by the NCI PDMR. All PDCs were thawed and cultured in Matrigel-coated flasks prepared with a working solution of 1X Ham's F-12 nutrient mix, without supplementation (Invitrogen, Waltham, MA, cat. 11765054), 100 U/mL penicillin-streptomycin (Invitrogen, cat. 15140122), and 2.5% Matrigel (Corning Inc., Corning, NY, cat. 354248) for the first three passages. The 362531-283-R-J2-PDC and 782815-120-R-J1-PDC lines were cultured in 6C/Colon 1B media, which includes advanced DMEM/F-12 (Thermo Fisher Scientific, cat. 12634028), 10 mM HEPES (Thermo Fisher Scientific, cat. 15630080), 1X GlutaMAX supplement (Thermo Fisher Scientific, cat. 35050061), 0.1 mg/mL primocin (InvivoGen, San Diego, CA, cat. ant-pm-2), 10% defined fetal bovine serum, heat inactivated (HyClone Laboratories Inc., Logan, UT, cat. SH30070.03HI), 50% L-WRN conditioned media (ATCC, cat. CRL-3276), 1.25 mM N-Acetyl-L-cysteine (Sigma-Aldrich, cat. A9165), 10 mM nicotinamide (Sigma-Aldrich, cat. N0636), 1X B-27 supplement (Thermo Fisher Scientific, cat. 17504044), 1X N-2 supplement (Thermo Fisher Scientific, cat. 17502048), 50 ng/mL human EGF (Thermo Fisher Scientific, cat. PHG0311), and 10 microM Y-27632 dihydrochloride (Tocris Bioscience, cat. 1254). The K12877-001-R-J1-PDC line was cultured in 6I media, which includes all 6C/Colon 1B media plus 10 ng/mL human FGF-10 (PeproTech, cat. 100-26), 1 ng/mL human FGF-2 (PeproTech, cat. 100-18B), 1 µM prostaglandin E2 (Tocris Bioscience, cat. 2296), […] hydrocortisone (Sigma-Aldrich, cat. H4001), and […] bovine insulin (Sigma-Aldrich, cat. I6634). The K86415-001-R-J1-PDC line was cultured in 6D media, which includes all 6C/Colon 1B media components minus the L-WRN conditioned media. The 485176-168-R4-J1-PDC was cultured in PANC media, which includes all 6C/Colon 1B media plus 100 ng/mL human FGF-10 (PeproTech, cat. 100-26), 500 nM SB-431542 (Selleckchem, cat. S1067), and 10 nM gastrin (Tocris Bioscience, cat. 3006). […]

[1] = curve of first compound, second compound 0.0316 µM
[2] = curve of first compound, second compound 0.1 µM
[3] = curve of first compound, second compound 0.316 µM
[4] = curve of first compound, second compound 1 µM
[5] = curve of first compound, second compound 3.16 µM
[6] = curve of first compound, second compound 10 µM
[7] = second compound 0.0316 µM, first compound 0.00316 µM
[8] = second compound 0.0316 µM, first compound 0.01 µM
[9] = second compound 0.0316 µM, first compound 0.0316 µM
[10] = second compound 0.0316 µM, first compound 0.1 µM
[11] = second compound 0.0316 µM, first compound 0.316 µM
[12] = second compound 0.0316 µM, first compound 1 µM
[13] = second compound 0.1 µM, first compound 0.00316 µM
[14] = second compound 0.1 µM, first compound 0.01 µM
[15] = second compound 0.1 µM, first compound 0.0316 µM
[16] = second compound 0.1 µM, first compound 0.1 µM
[17] = second compound 0.1 µM, first compound 0.316 µM
[18] = second compound 0.1 µM, first compound 1 µM
[19] = second compound 0.316 µM, first compound 0.00316 µM
[20] = second compound 0.316 µM, first compound 0.01 µM
[21] = second compound 0.316 µM, first compound 0.0316 µM
[22] = second compound 0.316 µM, first compound 0.1 µM
[23] = second compound 0.316 µM, first compound 0.316 µM
[24] = second compound 0.316 µM, first compound 1 µM
[25] = second compound 1 µM, first compound 0.00316 µM
[26] = second compound 1 µM, first compound 0.01 µM
[27] = second compound 1 µM, first compound 0.0316 µM
[28] = second compound 1 µM, first compound 0.1 µM
[29] = second compound 1 µM, first compound 0.316 µM
[30] = second compound 1 µM, first compound 1 µM
[31] = second compound 3.16 µM, first compound 0.00316 µM
[32] = second compound 3.16 µM, first compound 0.01 µM
[33] = second compound 3.16 µM, first compound 0.0316 µM
[34] = second compound 3.16 µM, first compound 0.1 µM
[35] = second compound 3.16 µM, first compound 0.316 µM
[36] = second compound 3.16 µM, first compound 1 µM
[37] = second compound 10 µM, first compound 0.00316 µM
[38] = second compound 10 µM, first compound 0.01 µM
[39] = second compound 10 µM, first compound 0.0316 µM
[40] = second compound 10 µM, first compound 0.1 µM
[41] = second compound 10 µM, first compound 0.316 µM
[42] = second compound 10 µM, first compound 1 µM
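Further: spheroids exposed to compound for 7 days before readout.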
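Wherever viability, T/C is given: 100% = DMSO vehicle control luminescence.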

CC(C)NCC(C(=O)N1CCN(c2ncnc3c2C(C)CC3O)CC1)c1ccc(Cl)cc1 (stereo not given)
< 5.00: pIC50 (curve of compound)
inactive: viability, T/C (compound 0.1 µM) 108% [middle of 4 runs] | viability, T/C (compound 0.316 µM) 119% and 102% (3×) | viability, T/C (compound 1 µM) 100% [middle of 4 runs] | viability, T/C (compound 3.16 µM) 100% [middle of 4 runs] | viability, T/C (compound 10 µM) 103% [middle of 4 runs]

Cc1nc(N2CCC3(CC2)COC(C)C3N)c(CO)nc1Sc1ccnc(N)c1Cl (stereo not given)
inactive: viability, T/C (compound 0.1 µM) 81.2% [middle of 4 runs] | viability, T/C (compound 0.316 µM) 70.5% [middle of 4 runs] | viability, T/C (compound 1 µM) 62.4% [middle of 4 runs] | viability, T/C (compound 3.16 µM) 53.9% [middle of 4 runs] | viability, T/C (compound 10 µM) 46.1% [middle of 4 runs]

C=CC(=O)Nc1cc(Nc2nccc(-c3cn(C)c4ccccc34)n2)c(OC)cc1N(C)CCN(C)C + C#Cc1c(F)ccc2cc(O)cc(-c3ncc4c(N5CC6CCC(C5)N6)nc(OCC56CCCN5CC(F)C6)nc4c3F)c12
6.12: pIC50 [3]
6.40: pIC50 [4]
6.90: pIC50 [6]
< 6.00: pIC50 [1] | pIC50 [2]
6.54: pIC50 [5]
inactive: viability, T/C [7] 114% | viability, T/C [8] 98.3% | viability, T/C [9] 111% | viability, T/C [10] 92.2% | viability, T/C [11] 78.9% | viability, T/C [12] 57.1% | viability, T/C [13] 110% | viability, T/C [14] 98% | viability, T/C [15] 105% | viability, T/C [16] 94.5% | viability, T/C [17] 74.5% | viability, T/C [18] 57.8% | viability, T/C [19] 98.4% | viability, T/C [20] 103% | viability, T/C [21] 80.7% | viability, T/C [22] 92% | viability, T/C [23] 72.8% | viability, T/C [24] 42.5% | viability, T/C [25] 91.2% | viability, T/C [26] 99.6% | viability, T/C [27] 60.5% | viability, T/C [28] 73.7% | viability, T/C [29] 61.1% | viability, T/C [30] 29.8% | viability, T/C [31] 90.2% | viability, T/C [32] 70.8% | viability, T/C [33] 87.3% | viability, T/C [34] 69% | viability, T/C [35] 48.5% | viability, T/C [36] 19.8% | viability, T/C [37] 67.4% | viability, T/C [38] 81.5% | viability, T/C [39] 64.1% | viability, T/C [40] 56.2% | viability, T/C [41] 30.8% | viability, T/C [42] 24.6%

O=C(c1ccc(F)c(F)c1Nc1ccc(I)cc1F)N1CC(O)([C@@H]2CCCCN2)C1 + C#Cc1c(F)ccc2cc(O)cc(-c3ncc4c(N5CC6CCC(C5)N6)nc(OCC56CCCN5CC(F)C6)nc4c3F)c12
6.98: pIC50 [4]
7.07: pIC50 [5]
6.87: pIC50 [3]
inactive: viability, T/C [7] 100% | viability, T/C [8] 95.1% | viability, T/C [9] 79% | viability, T/C [10] 61.6% | viability, T/C [11] 37.2% | viability, T/C [12] 22.1% | viability, T/C [13] 99.7% | viability, T/C [14] 103% | viability, T/C [15] 86% | viability, T/C [16] 66.1% | viability, T/C [17] 39.2% | viability, T/C [18] 22.2% | viability, T/C [19] 100% | viability, T/C [20] 99.4% | viability, T/C [21] 64.3% | viability, T/C [22] 59.3% | viability, T/C [23] 35.9% | viability, T/C [24] 17.2% | viability, T/C [25] 89.8% | viability, T/C [26] 81.8% | viability, T/C [27] 55.4% | viability, T/C [28] 60.5% | viability, T/C [29] 31.6% | viability, T/C [30] 16.9% | viability, T/C [31] 79% | viability, T/C [32] 62.9% | viability, T/C [33] 61.8% | viability, T/C [34] 51.5% | viability, T/C [35] 32.2% | viability, T/C [36] 15.7% | viability, T/C [37] 56.7% | viability, T/C [38] 62.1% | viability, T/C [39] 45.3% | viability, T/C [40] 31% | viability, T/C [41] 19.1% | viability, T/C [42] 17.1%
6.71: pIC50 [2]
6.77: pIC50 [1]
7.62: pIC50 [6]
